Experimental data published in article PMC9904262, “Omics analysis of Mycobacterium tuberculosis isolates uncovers Rv3094c, an ethionamide metabolism-associated gene” (Communications Biology, 2023).

B1: Rv3094c (enzyme)
chain: NQSETEIEILAEKIARWARARSAEIERDRRLPDELVTRLREAGLLRATMPREVAAPELAPGRALRCAEAVARGDASAGWCVSIAITSALLVAYLPARSREEMFGGGRGVAAGVWAPRGTARSVDGGVVVSGRWPFCSGINHADIMFAGCFVDDRQVPSVVALNKDELQVLDTWHTLGLRGTGSHDCVADDVFVPADRVFSVFDGPIVDRPLYRFPVFGFFALSIGAAALGNARAAIDDLVELAGGKKGLGSTRTLAERSATQAAAATAESALGAARALFYEVIEAAWQVSHDAEAVPVTMRNRLRLAATHAVRTSADVVRSMYDLAGGTAIYDNAPLQRRFRDAFTATAHFQVNEASRELPGRVLLDQPADVSML
notes: also called apo-Rv3094c; Rv3094c-FMN

Legend:
[1] = target: T1, Rv3094c (Mycobacterium tuberculosis, UniProt O05773)
[2] = target: T1, Rv3094c; remark: listed apart in the source
[3] = target: T2, EthA (Mycobacterium tuberculosis, UniProt P9WNF9); format: cell-based; settings: ethionamide 80 µg/ml (Methods), 37 °C, up to 6 h
T2 construct: N-terminal 6xHis tag kept (pET28a), expressed in intact E. coli BL21(DE3); not purified

[4] = target: the molecule itself; assay: crystal structure; crystals of apo-Rv3094c, Rv3094c-FMN and Rv3094c-FMN-ETH; 0.2 M sodium nitrate, 0.1 M Bis Tris propane pH 8.5, 20% PEG3350, 16 °C; multimeric state analysed with PDBePISA

T1 sequence (O05773 entry or part of it): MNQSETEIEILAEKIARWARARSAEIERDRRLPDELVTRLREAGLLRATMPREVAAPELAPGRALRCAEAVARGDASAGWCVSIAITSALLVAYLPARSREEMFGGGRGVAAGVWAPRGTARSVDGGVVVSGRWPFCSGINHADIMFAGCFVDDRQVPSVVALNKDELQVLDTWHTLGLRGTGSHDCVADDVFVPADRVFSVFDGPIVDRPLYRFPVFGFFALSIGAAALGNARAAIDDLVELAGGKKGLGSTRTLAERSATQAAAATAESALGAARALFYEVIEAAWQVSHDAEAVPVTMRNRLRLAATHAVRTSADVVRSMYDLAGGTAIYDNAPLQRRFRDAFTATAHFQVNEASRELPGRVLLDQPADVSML
T2 sequence (P9WNF9 whole entry): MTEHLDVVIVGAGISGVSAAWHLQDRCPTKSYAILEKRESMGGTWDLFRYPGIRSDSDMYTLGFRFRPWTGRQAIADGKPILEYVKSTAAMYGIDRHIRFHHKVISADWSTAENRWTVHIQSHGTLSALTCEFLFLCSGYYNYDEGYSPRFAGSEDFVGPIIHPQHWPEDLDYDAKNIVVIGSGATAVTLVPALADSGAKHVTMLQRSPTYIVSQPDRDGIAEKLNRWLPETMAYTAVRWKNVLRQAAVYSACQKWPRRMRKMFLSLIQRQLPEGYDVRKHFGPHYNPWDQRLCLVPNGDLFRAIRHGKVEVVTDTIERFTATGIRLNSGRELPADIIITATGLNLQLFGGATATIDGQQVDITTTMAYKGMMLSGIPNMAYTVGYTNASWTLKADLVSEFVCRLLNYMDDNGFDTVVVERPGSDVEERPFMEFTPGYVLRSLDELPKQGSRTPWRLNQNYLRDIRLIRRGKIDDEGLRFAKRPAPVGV

Molecule	X-ray crystallography [1]	HPLC-UV of E. coli culture supernatant, LC-MS/MS [2]	HPLC-UV of E. coli culture supernatant, LC-MS/MS [3]	stoichiometry N [4]
Cc1cc2nc3c(=O)[nH]c(=O)nc-3n(C[C@H](O)[C@H](O)[C@H](O)COP(=O)(O)O)c2cc1C [flavin mononucleotide]	Rv3094c in complex with FMN (Rv3094c-FMN; Supplementary Fig. 4b)			
CCc1cc(C(N)=S=O)ccn1 [ETH-SO]		We synthesized an ETH-SO standard, and confirmed the new peak to be ETH-SO	We synthesized an ETH-SO standard, and confirmed the new peak to be ETH-SO	
CCc1cc(C(N)=S)ccn1 [ethionamide]	in complex with FMN (Rv3094c-FMN; Supplementary Fig. 4b) and ethionamide (Rv3094c-FMN-ETH	Rv3094c must be a monooxygenase that can directly sulfoxidise ethionamide, forming ETH-SO	in supernatants from Rv3094c and ethA overexpression strains declined over time	
B1				4
